Source: patent US8980874B2, “Method and composition for treating diabetic ketoacidosis” (Midwestern University, priority 2009, dated 2015)
“Also recorded” adds a separate entry of the source. Structures can show the parent of a compound that is named as a salt. Non-standard residues stand in square brackets, D forms with d. Residues, ends and D or L forms follow the SMILES beside them.

Columns and labels:
[1] = test system: rat model of DKA; experiment: Brain and lung water content in diabetic ketoacidosis rats; type: in vivo; conditions: end of treatment; for effect on lung water content (pulmonary edema): FIG. 7, result in words; for effect on brain water content (cerebral edema): FIG. 8, result in words
Procedure: Water content in the lung and brain was determined to assess brain and pulmonary edema. Assessment of brain and lung water content was carried out as follows. At the end of treatment the animal was sacrificed and trachea was immediately tied, then the lungs were dissected out. The skull was opened and brain dissected out. Brain and lungs were rinsed with saline, and weighed (wet weight). The brain and lungs were kept for drying in an oven at a temperature of 60° C. for 72 hours, then weighed again (dry weight). The percent water content was calculated using the formula: [(wet weight−dry weight)/wet weight×100].
(§1) Group 4: Diabetic saline/insulin treated (D-Saline+insulin treated): Rats were injected with streptozotocin in citrate buffer (150 mg/kg ip) to induce diabetes and ketoacidosis. On day three, rats were treated with 1.5 U/kg regular insulin (Humulin® R (Regular human insulin, rDNA origin). On day four, saline and insulin treatment was carried out. Rats were infused via cannulated femoral vein saline, 0.9% NaCl at 80 mL/kg/hr and 1.5 U/kg/hr regular insulin for one hour. During the next two through four hours, rats were infused with saline, 0.9% NaCl at 40 mL/kg/hr and 1.5 U/kg/hr regular insulin (Yuen et al., 2008).
(§2) Group 5: Diabetic BMS-182874/saline/insulin treated (D-BMS+Saline+insulin treated): Rats were injected with streptozotocin in citrate buffer (150 mg/kg ip) to induce diabetes and ketoacidosis. On day three, rats were treated with 1.5 U/kg regular insulin. On day four, rats were administered a bolus dose of selective ETA receptor antagonist, BMS-182874 (9 mg/kg), then saline and insulin treatment was carried out. Rats were infused via cannulated femoral vein saline, 0.9% NaCl at 80 mL/kg/hr and 1.5 U/kg/hr regular insulin for one hour. During the next two through four hours rats were infused with saline, 0.9% NaCl at 40 mL/kg/hr and 1.5 U/kg/hr regular insulin.
(§3) Group 6: Diabetic BQ123/saline/insulin treated (D-BQ+saline+insulin treated): Same as above for Group 5, except BQ123 (1 mg/kg body weight) is used as a substitute for BMS-182874 (9 mg/kg).
(§4) Data are presented as mean±SEM. The significance of differences was estimated by one-way analysis of variance (intra group comparison with respect to base line data) and two-way analysis of variance (inter group comparison with respect to corresponding time points from each groups) followed by application of the Dunnett's Multiple Comparisons and Bonferroni test respectively. A P value of less than 0.05 was considered to be significant. The statistical analysis was processed with GraphPad Prism software Version 5.00.

[2] = test system: rat model of DKA; experiment: Blood ketone levels in diabetic ketoacidosis rats; type: in vivo; conditions: for blood ketone levels, Day (pre tx): baseline before treatment; for blood ketone levels, Day (pre tx) / blood ketone levels, Day 4 (end of tx): mean±SEM; for effect of treatment on blood ketones: day 4, result in words (Table 2, FIG. 2); for blood ketone levels, Day 4 (end of tx): saline+insulin, alone or after bolus BMS-182874 9 mg/kg or BQ123 1 mg/kg
Procedure: Normotensive Sprague Dawley rats were kept on fasting for 2 hours with unlimited access to water. After 2 hours of fasting, rats were injected intraperitoneally with 150 mg/kg of streptozotocin in 0.05 mol/L citric acid, pH 4.3 to induced diabetes (Lam et al., 2005; Yuen et al., 2008), while non-diabetic control rats received an intraperitoneal injection of 0.05 mol/L citrate buffer (Lam et al., 2005; Yuen et al., 2008). Rats were allowed unlimited access to tap water and food. Each day rats were weighed and urine ketone levels were estimated by Urine Reagent Strips, 1K Parameter. Prior to streptozotocin or citrate buffer injection, baseline blood glucose levels were assessed by One Touch Ultra blood glucose strips from Lifescan, Milpitas, Calif., and baseline blood ketone levels were estimated using Cardiochek blood ketone analyzer. Blood glucose and ketone were measured again on day three and four to ensure the onset of hyperglycemia and ketoacidosis. […] Blood samples were withdrawn from the femoral […] for baseline reading prior to start of treatment, after the first hour of treatment, and then at the end of the treatment (fifth hour of experiment).
The animals were allowed to stabilize for at least 20 minutes following surgical procedures. Body weight, blood glucose, urinary ketone, blood ketone, arterial blood gases, blood electrolytes, mean arterial pressure, pulse pressure, heart rate, brain blood perfusion, brain and lung water content were determined in the following groups
as §1, §2, §3, §4

[3] = test system: rat model of DKA; experiment: Plasma ET-1 level (Enzyme Immunometric Assay) in diabetic ketoacidosis rats; type: in vivo; conditions: for plasma ET-1, Day 4 (pre tx): baseline before treatment; for plasma ET-1, Day 4 (pre tx) / plasma ET-1, Day 4 (end of tx): mean±SEM; for effect of treatment on plasma ET-1 level: day 4, result in words (Table 4, FIG. 9); for plasma ET-1, Day 4 (end of tx): saline+insulin, alone or after bolus BMS-182874 9 mg/kg or BQ123 1 mg/kg
Procedure: In order to analyze the change in plasma ET-1 level during the treatment, blood samples were withdrawn through right femoral artery of the rats before and at the end of experiment and were collected into chilled EDTA tubes (1 mg/mL blood) containing aprotinin (500 KIU/mL of blood). The blood samples were centrifuged at 1,600×g for 15 minutes at 0° C. and plasma separated was stored at −70° C. until analyzed. ET-1 level was estimated using Assay's Design's Endothelin-1 Enzyme Immunometric Assay Kit (Nowicki et al., 2005; Brondani et al., 2007). Briefly, plasma samples and standards were added to wells coated with a monoclonal antibody specific for ET-1. The plate then was washed after 24 hours of incubation, leaving only bound ET-1 on the plate. A solution of horseradish peroxidase (HRP) labeled monoclonal antibody to ET-1 then was added, which binds to the ET-1 captured on the plate. The plate was incubated for 30 min, then washed to remove excess HRP labeled antibody. A solution of 3,3′,5,5′-tetramethylbenzidine (TMB) substrate was added, which generates a blue color when catalyzed by the HRP. Hydrochloric acid (1N) was added to stop the substrate reaction, and the resulting yellow color was read at 450 nm using DTX 800 Multimode detector. The data was analyzed with Multimode Detection Software (Beckman Coulter, Inc., Fullerton, Calif.). The measured optical density is directly proportional to the concentration of ET-1 in either standards/plasma. Blood samples from all the groups were collected before the start and at end of the treatment.
as §1, §2, §3, §4

[4] = test system: rats induced with neurogenic pulmonary edema; conditions: cited from earlier work
[5] = test system: intrathecal (IT) injection of ET-1 into rats; conditions: pre-treatment, intrathecal ET-1 in rats; cited from earlier work

Compound	effect on lung water content (pulmonary edema) [1]	effect on brain water content (cerebral edema) [1]	blood ketone levels, Day (pre tx) [2]	effect of treatment on blood ketones [2]	blood ketone levels, Day 4 (end of tx) [2]	plasma ET-1, Day 4 (pre tx) [3]	effect of treatment on plasma ET-1 level [3]	plasma ET-1, Day 4 (end of tx) [3]	effect on hypoxia and hypercapnea [4]	effect on pulmonary edema [5]	reduction of mortality rate [5]	effect of treatment on blood ketones ([2]; hydrochloride)	effect of treatment on blood ketones ([2]; listed as BMS, hydrochloride)
Insulin: Humulin® R (Regular human insulin, rDNA origin), infused with saline	restored lung water content	restored brain water content	31.925 ± 5.28 mg/dL	produced a significant decrease in blood ketones	12.8 ± 4.04 mg/dL	11.76 ± 1.94 pg/mL	increased the plasma levels of ET-1	22.17 ± 2.67 pg/mL	–	–	–	–	–
CC(C)C[C@@H]1NC(=O)[C@@H](C(C)C)NC(=O)[C@@H]2CCCN2C(=O)[C@@H](CC(=O)O)NC(=O)[C@@H](Cc2c[nH]c3ccccc23)NC1=O [BQ123, Cyclo(D-Trp-D-Asp-Pro-D-Val-Leu)] (cyclo(L[dW][dD]P[dV]))	restored lung water content	restored brain water content	28.22 ± 3.14 mg/dL	particularly marked decrease in blood ketones; also recorded: significantly decrease the blood ketones	5.2 ± 0.36 mg/dL	15.78 ± 4.11 pg/mL	did not significantly affect plasma ET-1 level	26.53 ± 5.52 pg/mL	ameliorated	prevented pulmonary edema	50%	–	–
Cc1noc(NS(=O)(=O)c2cccc3c(N(C)C)cccc23)c1C [BMS-182874, (5-Dimethylamino)-N-(3,4-dimethyl-5-isoxazolyl)-1-naphthalene sulfonamide hydrochloride]	restored lung water content	restored brain water content	31.01 ± 2.29 mg/dL	–	14.65 ± 2.70 mg/dL	11.93 ± 2.01 pg/mL	did not significantly affect plasma ET-1 level	20.40 ± 3.23 pg/mL	–	–	–	did not significantly affect blood ketones	produced a significant decrease in blood ketones
